Test results: ChEMBL document CHEMBL5154926, “Discovery of a Novel Series of Imipridone Compounds as Homo sapiens Caseinolytic Protease P Agonists with Potent Antitumor Activities In Vitro and In Vivo” (J Med Chem, 2022)

Experiments:
HCT-15 = test: cells; conditions: Homo sapiens, HCT-15, 48 h
Description: Antiproliferative activity against human HCT-15 cells incubated for 48 hrs by CCK-8 assay

HT-29 = test: cells; conditions: Homo sapiens, HT-29, 48 h
Description: Antiproliferative activity against human HT-29 cells incubated for 48 hrs by CCK-8 assay

DLD-1 = test: cells; conditions: Homo sapiens, DLD-1, 48 h
Description: Antiproliferative activity against human DLD-1 cells incubated for 48 hrs by CCK-8 assay

SW-620 = test: cells; conditions: Homo sapiens, SW-620, 48 h
Description: Antiproliferative activity against human SW-620 cells incubated for 48 hrs by CCK-8 assay

HCT-116 [1] = test: Potency index, ratio of ONC201 IC50 to test compound IC50 for antiproliferative activity against human HCT-116 cells by CCK-8 assay; type: functional
U-251 = test: Antiproliferative activity against human U-251 cells incubated for 48 hrs by CCK-8 assay; type: functional, cell-based; conditions: U-251, 48 h
[2] = Antiproliferative activity against rat H9c2 cells incubated for 48 hrs by CCK-8 assay; type: toxicity, cell-based
[3] = Antiproliferative activity against human HEK293 cells incubated for 48 hrs by CCK-8 assay; type: toxicity, cell-based
Raji = test: Antiproliferative activity against human Raji cells incubated for 48 hrs by CCK-8 assay; type: functional, cell-based
SW480 = test: cells; conditions: Homo sapiens, SW480, 48 h
Description: Antiproliferative activity against human SW480 cells incubated for 48 hrs by CCK-8 assay

MDA-MB-231 = test: Antiproliferative activity against human MDA-MB-231 cells incubated for 48 hrs by CCK-8 assay; type: functional, cell-based; conditions: MDA-MB-231, 48 h
A549 = test: Antiproliferative activity against human A549 cells incubated for 48 hrs by CCK-8 assay; type: functional, cell-based; conditions: A549, 48 h
HCT-116 [4] = test: cells; conditions: Homo sapiens, HCT-116, 48 h
Description: Antiproliferative activity against human HCT-116 cells incubated for 48 hrs by CCK-8 assay

IC50 (HCT-15): 1280 nM
IC50 (HT-29): 5300 nM
IC50 (DLD-1): 520 nM
IC50 (SW-620): 640 nM
IC50 (U-251): 2060 nM
IC50 (Raji): 1060 nM
IC50 (SW480): 1100 nM
IC50 (MDA-MB-231): 10500 nM
IC50 (A549): 2140 nM
IC50 (HCT-116 [4]): 400 nM
SMILES: Cc1ccccc1CN1CCn2c1nc(=O)c1c2CCN(Cc2ccccc2)C1
Ratio IC50 (HCT-116 [1]): 10
IC50 at 48 h [2]: > 50000 nM
IC50 at 48 h [3]: > 50000 nM
